The values that follow come from patent US10323020B2, “Substituted piperidinyl tetrahydroquinolines” (Bayer Pharma Aktiengesellschaft, priority 2013, dated 2019).

Data set [1] deals with conscious female Wistar rats. Nature of the data set: Radiotelemetric measurement of blood pressure and heart rate of conscious rats. It is filed as in vivo, rat. From the text:
A commercially available telemetry system from Data Sciences International DSI, USA, was employed for the measurements on conscious rats described below. The system consists of 3 main components: (1) implantable transmitters (Physiotel® telemetry transmitter), (2) receivers (Physiotel® receiver), which are linked via a multiplexer (DSI Data Exchange Matrix) to a (3) data acquisition computer. The telemetry system makes it possible to continuously record blood pressure, heart rate and body motion of conscious animals in their usual habitat.
The studies were conducted on adult female Wistar rats with a body weight of >200 g. After transmitter implantation, the experimental animals were housed singly in type III Makrolon® cages. They had free access to standard feed and water. The day/night rhythm in the test laboratory was set by changing the illumination of the room.
The telemetry transmitters used (PA-C40, DSI) were surgically implanted under aseptic conditions in the experimental animals at least 14 days before the first experimental use.
For the implantation, the fasted animals were anaesthetized with isoflurane (IsoFlo®, Abbott, initiation 5%, maintenance 2%) and shaved and disinfected over a large area of their abdomens. […]
Each of the instrumented rats living in the system was assigned a separate receiving antenna (RPC-1 Receiver, DSI). […] The signals emitted were detected online by a data acquisition system (Dataquest™ A.R.T. for Windows, DSI) and processed accordingly.
In the standard procedure, the following were measured for 10-second periods in each case: (1) systolic blood pressure (SBP), (2) diastolic blood pressure (DBP), (3) mean arterial pressure (MAP) and (4) heart rate (HR) and (5) activity (ACT). These parameters were measured over 24 hours after administration.
The acquisition of measurements was repeated under computer control at 5-minute intervals. The source data obtained as absolute values were corrected in the diagram with the currently measured barometric pressure (Ambient Pressure Reference Monitor, APR-1, DSI). […]

Data set [2] concerns diabetic ZDF fa/fa animals. The experiment in a line: Measurement of blood flow and blood pressure in rats (femoral flow), ZDF rat. It counts as in vivo. As to conditions: for Change in the femoral flow in %: ZDF rat (n = 3), steady state 32 min, mean. How it is done:
(§1) Wistar rats (Hsd Cpb:Wu) of a weight of 250-350 g or ZDF rats (ZDF/Crl-Lepr fa/fa) of a weight of 330-520 g were anesthetized using 2.5% isoflurane in an oxygen/laughing gas mixture (40:60). To determine the blood flow in the carotid artery and the femoral artery, the anesthetized rat was brought into a supine position, and the left carotid artery and the right femoral artery are then carefully exposed. Blood flow was measured by placing flow probes (Transonic Flowprobe) at the vessels. By introducing a PE50 artery catheter into the left femoral artery, blood pressure and heart rate were determined (Transducer Ref. 5203660: from Braun CH). The substances were administered as a bole injection or a continuous infusion via a venous catheter in the left femoral vein.
(§2) Following the preparation of the animals, there was a 5 min baseline interval. Infusion of the AR alpha2C receptor antagonist was then started. In the steady state (32 min after the start of the experiment), the femoral flow was determined in relation (% difference) to the initial flow.
(§3) At the same time, no changes in blood pressure and heart rate were measured. Placebo: 10% ethanol/40% PEG400/50% NaCl.

Data set [3] concerns Wistar rat. The experiment in a line: Measurement of blood flow and blood pressure in rats (femoral flow), Wistar rat. It is filed as in vivo. On the procedure:
as §1, §2, §3

Data set [4] has as its target recombinant human α2C receptor (Homo sapiens (Human), UniProt P18825). Nature of the data set: Antagonism against the adrenoreceptor α2C (luminescence, noradrenaline-stimulated CHO cells). It counts as cell-based. The note with it: noradrenaline 20 nM; CHO cell line with Gαqi3 and mtOb. On the procedure: Antagonism against the adrenoreceptor α1A was tested using a recombinant human α1A receptor CHO cell line which additionally also recombinantly expresses mtAeq (mitochondrial aequorin). Antagonism against the adrenoreceptor α2A was tested using a recombinant human α2A-Gα16 receptor fusion protein CHO cell line (PerkinElmer Life Sciences) which additionally also recombinantly expresses mtAeq. Antagonism against the adrenoreceptor α2B was tested using a recombinant human α2B receptor CHO cell line (PerkinElmer Life Sciences) which additionally also recombinantly expresses mtAeq. Antagonism against the adrenoreceptor α2C was tested using a recombinant human α2C receptor CHO cell line which additionally also recombinantly expresses a chimaric G protein (Gαqi3) and mtOb (mitochondrial obelin).
The cells were cultivated at 37° C. and 5% CO2 in Dulbecco's modified Eagle's Medium/NUT mix F12 with L-glutamine which additionally contains 10% (v/v) inactivated foetal calf serum, 1 mM sodium pyruvate, 0.9 mM sodium bicarbonate, 50 U/ml penicillin, 50 μg/ml streptomycin, 2.5 μg/ml amphotericin B and 1 mg/ml Geneticin. The cells were passaged with enzyme-free Hank's-based cell dissociation buffer. All cell culture reagents used were from Invitrogen (Carlsbad, USA).
Luminescence measurements were carried out on white 384-well microtitre plates. 2000 cells/well were plated in a volume of 25 μl and cultivated for one day at 30° C. and 5% CO2 in cell culture medium with coelenterazine (α2A and α2B: 5 μg/ml; α1a/c and α2C: 2.5 μg/ml). Serial dilutions of the test substances (10 μl) were added to the cells. After 5 minutes, noradrenaline was added to the cells (35 μl; final concentrations: 20 nM (α1a/c and α2C) or 200 nM (α2A and α2B)), and the emitted light was measured for 50 seconds using a CCD (charge-coupled device) camera (Hamamatsu Corporation, Shizuoka, Japan) in a light-tight box. The test substances were tested up to a maximum concentration of 10 μM. The IC50 values were calculated from the appropriate dose-response curves.

In data set [5] the test system is diabetic (ZDFfa/fa) and healthy rats (Wistar). Nature of the data set: Assay of perfusion-enhancing substances (microcirculation), laser doppler at the paw. It is filed as in vivo, rat. From the text: In diabetic (ZDFfa/fa) and healthy rats (Wistar), a laser doppler probe was fastened under anaesthesia conditions (isoflurane anaesthesia) at the sole of the paw for measuring cutaneous microcirculation. The test animals were once treated orally with the test substances. During the experiment, microperfusion and temperature of the lower extremities were documented continuously. Here, a temperature-sensitive laser doppler probe (Periflux, O2C) was fastened with adhesive to the paws of the animals, allowing the measurement of microperfusion and skin temperature. The microcirculation measurement values were measured on both paws 30 min after oral administration of the test substance. […] Also stated is the MED for the significant increase of skin temperature (ttest).
Microcirculation data for adrenoreceptor α2C receptor antagonist of the compound of Example 8 and for the comparative substance ORM12741, an AR α2c receptor antagonist from Orion, are shown in Table 3: […]

The mark [6] stands for this setting: during infusion, up to 1 μg/kg/min.

Chain of recombinant human α2C receptor (P18825 whole entry, the tested form may be a part): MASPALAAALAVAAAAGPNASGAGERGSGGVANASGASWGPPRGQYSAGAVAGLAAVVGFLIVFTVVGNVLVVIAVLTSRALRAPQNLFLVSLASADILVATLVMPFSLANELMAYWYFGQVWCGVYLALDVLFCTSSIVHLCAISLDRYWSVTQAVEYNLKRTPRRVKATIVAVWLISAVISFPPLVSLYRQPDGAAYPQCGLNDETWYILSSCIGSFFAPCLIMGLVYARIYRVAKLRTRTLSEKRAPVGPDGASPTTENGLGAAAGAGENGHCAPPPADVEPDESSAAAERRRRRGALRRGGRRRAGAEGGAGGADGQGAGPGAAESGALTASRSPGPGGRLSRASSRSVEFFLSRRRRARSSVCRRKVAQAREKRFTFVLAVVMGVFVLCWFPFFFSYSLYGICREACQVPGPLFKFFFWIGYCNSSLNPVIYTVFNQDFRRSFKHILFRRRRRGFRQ

One may read the IC50 as the concentration that gives 50% inhibition. `O=C(c1cnc(N2CC3(COC3)C2)nc1)N1CCC(N2CCc3ccccc3C2)CC1` [Example 8, [4-(3,4-Dihydroisoquinolin-2(1H)-yl)piperidin-1-yl][2-(2-oxa-6-azaspiro[3.3]hept-6-yl)pyrimidin-5-yl]methanone]: the heart rate result in data set [1] (oral 3 and 10 mg/kg) is “slight transient increase in the heart rate”. Besides, the “haemodynamic effects (blood pressure, heart rate)” value in data set [1] (up to an oral dose of 1 mg/kg) is given as “no haemodynamic effects”. Besides, the “Change in the femoral flow in %” value is reported as 12.3% in data set [2] (0.1 μg/kg/min infusion); 65.0% in data set [2] (0.3 μg/kg/min infusion); 131.3% in data set [2] (1 μg/kg/min infusion); −6.7 (n = 7) % in data set [3] (Wistar rat (n = 7), 1 μg/kg/min infusion, steady state 32 min, mean). Moreover, the “femoral flow (in words)” value in data set [2] (diabetic ZDF fa/fa animals, doses of 0.1, 0.3 and 1 μg/kg) is listed as “dose-dependent increase in femoral flow”; in data set [3] (Wistar rat, up to a dose of 1 μg/kg/min) it was “no increase in femoral flow”. Also, the “blood pressure (in words)” value in data set [3] (setting [6]) was “no changes”. In addition, in data set [3] (setting [6]), the “heart rate (in words)” value is given as “no changes”. In addition, the IC50 in data set [4] was found to be 23 nM. Further, the “factor by which microcirculation is improved at the MED compared to placebo” value in data set [5] (single oral dose at MED, 30 min after administration) came out at 1.8 x. Also, the MED microcirculation in data set [5] (single oral dose, measured 30 min after administration, significant vs placebo) is on record as 0.03 mg/kg. In addition, the MED skin temperature in data set [5] (single oral dose, significant increase of skin temperature (ttest)) was found to be 0.01 mg/kg.
